From patent US20230034248A1, “PLANT STOMATA OPENING PROMOTING AGENT” (OAT Agrio Co., Ltd., priority 2019, published 2023) come the findings set out here.

For test [1], the system named is lower epidermis of Commelina benghalensis L. The test can be described thus: Stomatal opening promoting activity in a dark place (stomatal aperture of peeled lower epidermis). Type of test: cell-based. The following applies: for Stomatal Aperture: dark place 3 hours. As for the experimental part: (§1) The lower epidermis of Commelina benghalensis L. was peeled off, immersed in the stomatal aperture measurement solution, and allowed to stand still in a dark place for 2 hours. Then, the lower epidermis of Commelina benghalensis L. was immersed in test solutions prepared by adding steviol to the stomatal aperture measurement solution to give 100 or 300 μM (final concentration) or in the stomatal aperture measurement solution without the addition of steviol (Comparative Example 1), and allowed to stand still in a bright place for 3 hours. The lower epidermis of Commelina benghalensis L. after immersion in the test solutions was photographed with a digital camera (LCD (Liquid Crystal Display), manufactured by KENIS LIMITED) attached to a microscope (Olympus BH2; objective lens SPlan 10 [manufactured by Olympus Corporation] magnification 200×). The stomatal aperture was measured with measurement software (digital microanalyzer, manufactured by Nippon Polaroid Corporation; Polaroid is the registered trademark). The stomatal aperture was measured for 80 or more stomata, for each addition concentration. The stomatal aperture obtained at each addition concentration was compared with the stomatal aperture obtained without the addition of steviol (0 μM, Comparative Example 1), and statistical analysis was performed by student's t-test.
(§2) The lower epidermis of Commelina benghalensis L. that had been peeled off was immersed in the stomatal aperture measurement solution, and allowed to stand still in a dark place for 2 hours. Then, the lower epidermis of Commelina benghalensis L. was immersed in test solutions prepared by adding steviol to the stomatal aperture measurement solution to give 200 or 300 μM (final concentration) or in the stomatal aperture measurement solution without the addition of steviol (Comparative Example 4), and allowed to stand still in a dark place for 3 hours. Then, the stomatal aperture was measured as in Example 1.
as §2, with “stevioside” for “steviol”, “give 100,” for “give”, “5),” for “4),”
as §2, with “rebaudioside A” for “steviol”, “10, 100, 300,” for “200”, “500” for “300”, “6),” for “4),”
as §2, with “FARM A” for “steviol”, “a 2,000-, 1,000-,” for “200”, “500-fold dilution” for “300 μM”, “7),” for “4),”

Test [2] has the same test system. Put plainly: Abscisic acid-induced stomatal closure inhibitory activity, first evaluation (stomatal aperture of peeled lower epidermis). It is filed as cell-based. Conditions: for Stomatal Aperture: 2 hours. Here is the method:
as §1
The lower epidermis of Commelina benghalensis L. was peeled off, immersed in the stomatal aperture measurement solution, and allowed to stand still in a bright place for 3 hours. Then, the lower epidermis of Commelina benghalensis L. was immersed in test solutions prepared by adding 10 μM (final concentration) of abscisic acid and 400 or 600 μM of steviol to the stomatal aperture measurement solution or in the stomatal aperture measurement solution without the addition of steviol (Comparative Example 8) prepared by adding 10 μM (final concentration) of abscisic acid alone, and allowed to stand still for 2 hours. Then, the stomatal aperture was measured as in Example 1.
(§3) The lower epidermis of Commelina benghalensis L. was peeled off, immersed in the stomatal aperture measurement solution, and allowed to stand still in a bright place for 3 hours. Then, the lower epidermis of Commelina benghalensis L. was immersed in test solutions prepared by adding 10 μM (final concentration) of abscisic acid and 300 or 800 μM (final concentration) of stevioside to the stomatal aperture measurement solution or in the stomatal aperture measurement solution without the addition of stevioside (Comparative Example 9) prepared by adding 10 μm (final concentration) of abscisic acid alone, and allowed to stand still for 2 hours. Then, the stomatal aperture was measured as in Example 1.
as §3, with “100, 300,” for “300”, “500” for “800”, “rebaudioside A” for “stevioside”, “10)” for “9)”
The lower epidermis of Commelina benghalensis L. was peeled off, immersed in the stomatal aperture measurement solution, and allowed to stand still in a bright place for 3 hours. […]

The mark [3] stands for this setting: addition concentration 300 μM with 10 μM abscisic acid.

Regarding `C=C1C[C@@]23CC[C@H]4[C@@](C)(CCC[C@@]4(C)C(=O)O[C@@H]4O[C@H](CO)[C@@H](O)[C@H](O)[C@H]4O)[C@@H]2CC[C@]1(O[C@@H]1O[C@H](CO)[C@@H](O)[C@H](O[C@@H]2O[C@H](CO)[C@@H](O)[C@H](O)[C@H]2O)[C@H]1O[C@@H]1O[C@H](CO)[C@@H](O)[C@H](O)[C@H]1O)C3` [rebaudioside A], the “Stomatal Aperture” value amounted to 8.70 ± 0.39 μm in test [1] (addition concentration 10 μM); 9.53 ± 0.45 μm in test [1] (addition concentration 100 μM); 11.46 ± 0.55 μm in test [1] (addition concentration 300 μM); 9.05 ± 0.40 μm in test [1] (addition concentration 500 μM); 7.74 ± 2.90 μm in test [2] (addition concentration 100 μM with 10 μM abscisic acid); 9.85 ± 2.57 μm in test [2] (setting [3]). Moreover, in test [2] (addition concentration 500 μM with 10 μM abscisic acid), the “Stomatal Aperture” value was 9.32 ± 2.69 μm. The “stomatal aperture as compared to without the addition (student's t-test)” value in test [1] (every concentration (10, 100, 300, 500 μM), dark place) was “statistically significant increase in the stomatal aperture”; in test [2] (100, 300, or 500 μM with 10 μM abscisic acid), “statistically significant increase in the stomatal aperture”.
On to `C=C1C[C@@]23CC[C@H]4[C@@](C)(CCC[C@@]4(C)C(=O)O)[C@@H]2CC[C@]1(O)C3` [steviol], for which the “stomatal aperture as compared to without the addition (student's t-test)” value in test [1] (200 or 300 μM, dark place) is “statistically significant increase in the stomatal aperture”; in test [2] (400 or 600 μM with 10 μM abscisic acid) it was “statistically significant increase in the stomatal aperture”. For the same compound, the “Stomatal Aperture” value turned out to be 15.00 ± 0.32 μm in test [1] (addition concentration 200 μM), 11.94 ± 0.42 μm in test [1] (addition concentration 300 μM), 10.65 ± 0.48 μm in test [2] (addition concentration 400 μM with 10 μM abscisic acid) and 13.27 ± 0.49 μm in test [2] (addition concentration 600 μM with 10 μM abscisic acid).
For the compound `C=C1C[C@@]23CC[C@H]4[C@@](C)(CCC[C@@]4(C)C(=O)O[C@@H]4O[C@H](CO)[C@@H](O)[C@H](O)[C@H]4O)[C@@H]2CC[C@]1(O[C@@H]1O[C@H](CO)[C@@H](O)[C@H](O)[C@H]1O[C@@H]1O[C@H](CO)[C@@H](O)[C@H](O)[C@H]1O)C3` [stevioside], the “stomatal aperture as compared to without the addition” value in test [1] (100, 200 or 300 μM, dark place) was “an increase in the stomatal aperture”. The “stomatal aperture as compared to without the addition (student's t-test)” value in test [1] (100 or 200 μM, dark place) is “statistically significant increase in the stomatal aperture”; in test [2] (300 or 800 μM with 10 μM abscisic acid), “statistically significant increase in the stomatal aperture”. Also, the “Stomatal Aperture” value in test [1] (addition concentration 100 μM) worked out at 6.83 ± 0.23 μm; in test [1] (addition concentration 200 μM), 7.33 ± 0.31 μm; in test [1] (addition concentration 300 μM), 5.81 ± 0.20 μm; in test [2] (setting [3]) it was 7.03 ± 0.39 μm; in test [2] (addition concentration 800 μM with 10 μM abscisic acid) it was 6.49 ± 0.32 μm.
